Test results taken from patent US20130261130A1, “NEUROTRYPSIN INHIBITORS” (priority 2010, published 2013).
pIC50: −log10 of the molar value.

Biological target: T1, human neurotrypsin (Homo sapiens, UniProt P56730)
T1 sequence (P56730 21-875): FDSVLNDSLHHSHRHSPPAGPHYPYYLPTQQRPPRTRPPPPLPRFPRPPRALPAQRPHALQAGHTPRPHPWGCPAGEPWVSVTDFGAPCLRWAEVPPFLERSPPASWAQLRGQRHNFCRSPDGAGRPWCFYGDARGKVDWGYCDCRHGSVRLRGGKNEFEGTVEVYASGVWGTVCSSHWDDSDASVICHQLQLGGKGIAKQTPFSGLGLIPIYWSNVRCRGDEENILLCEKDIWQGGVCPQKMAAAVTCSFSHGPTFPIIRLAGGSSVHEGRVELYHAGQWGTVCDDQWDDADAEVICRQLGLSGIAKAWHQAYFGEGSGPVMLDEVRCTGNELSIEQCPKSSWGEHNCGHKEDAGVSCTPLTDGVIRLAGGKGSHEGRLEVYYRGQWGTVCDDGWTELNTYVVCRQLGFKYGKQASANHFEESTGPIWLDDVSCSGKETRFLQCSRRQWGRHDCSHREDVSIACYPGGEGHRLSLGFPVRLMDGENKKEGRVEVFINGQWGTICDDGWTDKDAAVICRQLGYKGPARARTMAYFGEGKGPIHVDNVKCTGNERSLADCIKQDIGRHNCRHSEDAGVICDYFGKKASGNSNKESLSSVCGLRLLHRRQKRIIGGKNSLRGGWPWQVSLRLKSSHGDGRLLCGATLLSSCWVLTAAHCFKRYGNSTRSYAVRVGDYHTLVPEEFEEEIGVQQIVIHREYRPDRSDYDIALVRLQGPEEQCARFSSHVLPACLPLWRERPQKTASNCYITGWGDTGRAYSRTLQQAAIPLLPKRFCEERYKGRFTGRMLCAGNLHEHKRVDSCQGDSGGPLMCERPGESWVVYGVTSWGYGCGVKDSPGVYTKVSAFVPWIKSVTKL
Test: Determination of IC50 for human neurotrypsin
Format: biochemical
Conditions: human neurotrypsin; method of WO 2006/1103261; read-out: Neurotrypsin IC50
Procedure: Assessment of the potency of compounds of examples 1-311 in inhibiting the enzymatic activity of human neurotrypsin was performed according to the method described in patent application WO 2006/1103261

SMILES | pIC50
O=C(Nc1ccccc1F)c1ccc(NC(=O)c2ccc(-c3nc4cc(Cl)c(Cl)cc4[nH]3)cc2)c(C(=O)O)c1 [Example 48, 2-(4-(5,6-Dichloro-1H-benzo[d]imidazol-2-yl)-benzamido)-5-(2-fluoro-phenylcarbamoyl)benzoic acid] | 5.47
CN(CC1CCCCC1)C(=O)c1ccc(NC(=O)c2ccc(-c3nc4cc(Cl)c(Cl)cc4[nH]3)cc2)c(C(=O)O)c1 [Example 49, 5-(N-Cyclohexylmethyl-N-methylcarbamoyl)-2-(4-(5,6-dichloro-1H-benzo[d]-imidazol-2-yl)benzamido)-benzoic acid] | 5.18
O=C(Nc1ccc(Cl)cc1F)c1ccc(NC(=O)c2ccc(-c3nc4cc(Cl)c(Cl)cc4[nH]3)cc2)c(C(=O)O)c1 [Example 51, 5-(4-Chloro-2-fluorophenyl-carbamoyl)-2-(4-(5,6-dichloro-1H-benzo[d]-imidazol-2-yl)benzamido)-benzoic acid] | 6.30
O=C(Nc1nccs1)c1ccc(C(=O)O)c(NC(=O)c2sc3ccccc3c2Cl)c1 [Example 52, 2-(3-Chlorobenzo[b]thiophene-2-carboxamido)-4-(thiazol-2-ylcarbamoyl)-benzoic acid] | 4.81
O=C(Nc1ncc(Cl)s1)c1ccc(C(=O)O)c(NC(=O)c2sc3ccccc3c2Cl)c1 [Example 59] | 5.05
O=C(Nc1ncc(Cl)s1)c1ccc(C(=O)O)c(NC(=O)c2ccc(-c3ccccc3)s2)c1 [Example 62] | 5.12
O=C(Nc1ccc(CCc2ccccc2)cc1)c1ccc(C(=O)O)c(NC(=O)c2sc3ccccc3c2Cl)c1 [Example 63, 2-(3-Chlorobenzo[b]-thiophene-2-carboxamido)-4-(4-phenethylphenyl-carbamoyl)benzoic acid] | 3.89
O=C(Nc1ccc(Oc2ccccc2)cc1)c1ccc(C(=O)O)c(NC(=O)c2sc3ccccc3c2Cl)c1 [Example 64] | 4.63
O=C(Nc1cccc(Oc2ccccc2)c1)c1ccc(C(=O)O)c(NC(=O)c2sc3ccccc3c2Cl)c1 [Example 65] | 5.14
O=C(Nc1ccc(Cc2ccccc2)cc1)c1ccc(C(=O)O)c(NC(=O)c2sc3ccccc3c2Cl)c1 [Example 67] | 4.97
CC(C)(C)c1ccc(NC(=O)c2ccc(C(=O)O)c(NC(=O)c3sc4ccccc4c3Cl)c2)cc1 [Example 69] | 5.51
O=C(Nc1ccc(Oc2ccccc2)c(Cl)c1)c1ccc(C(=O)O)c(NC(=O)c2sc3ccccc3c2Cl)c1 [Example 73] | 5.36
O=C(O)CN(C(=O)c1ccc(C(=O)O)c(NC(=O)c2sc3ccccc3c2Cl)c1)c1ccc(Cl)cc1 [Example 74] | 4.58
CC(C)(C)c1cccc(NC(=O)c2ccc(C(=O)O)c(NC(=O)c3sc4ccccc4c3Cl)c2)c1 [Example 75] | 5.25
CC(C)(C)Oc1ccc(NC(=O)c2ccc(C(=O)O)c(NC(=O)c3sc4ccccc4c3Cl)c2)cc1 [Example 78] | 4.72
O=C(Nc1ccccc1O)c1ccc(C(=O)O)c(NC(=O)c2sc3ccccc3c2Cl)c1 [Example 82] | 4.75
O=C(Nc1ccc(Oc2cccnc2)cc1)c1ccc(C(=O)O)c(NC(=O)c2sc3ccccc3c2Cl)c1 [Example 84] | 5.32

SMILES | pIC50
O=C(Nc1ccc(Oc2cccnc2)c(Cl)c1)c1ccc(C(=O)O)c(NC(=O)c2sc3ccccc3c2Cl)c1 [Example 85] | 5.64
O=C(Nc1nc2ccc(Cl)cc2s1)c1ccc(C(=O)O)c(NC(=O)c2sc3ccccc3c2Cl)c1 [Example 87, 2-(3-Chlorobenzo[b]-thiophene-2-carboxamido)-4-(6-chlorobenzo[d]thiazol-2-yl-carbamoyl)benzoic acid] | 5.37
CN(C(=O)c1ccc(C(=O)O)c(NC(=O)c2sc3ccccc3c2Cl)c1)c1cc2ccccc2s1 [Example 88] | 4.61
O=C(NCc1ccc(Cl)s1)c1ccc(C(=O)O)c(NC(=O)c2sc3ccccc3c2Cl)c1 [Example 90] | 5.31
O=C(NCc1ccc(-c2ccc(Cl)cc2)s1)c1ccc(C(=O)O)c(NC(=O)c2sc3ccccc3c2Cl)c1 [Example 91, 2-(3-Chlorobenzo[b]-thiophene-2-carboxamido)-4-((5-(4-chlorophenyl)thiophen-2-ylmethyl)carbamoyl)-benzoic acid] | 5.00
O=C(O)c1ccc(C(=O)N2CCCc3ccccc32)cc1NC(=O)c1sc2ccccc2c1Cl [Example 97] | 4.99
O=C(O)c1ccc(C(=O)N2CCC(O)(c3ccc(Cl)cc3)CC2)cc1NC(=O)c1sc2ccccc2c1Cl [Example 99] | 5.16
O=C(O)c1ccc(C(=O)N2CCC(Oc3ccccc3)C2)cc1NC(=O)c1sc2ccccc2c1Cl (stereo not drawn) [Example 101] | 5.05
O=C(O)c1ccc(C(=O)N2CCC(c3ccccc3)C2)cc1NC(=O)c1sc2ccccc2c1Cl (stereo not drawn) [Example 103] | 5.39
O=C(O)c1cc(C(=O)N2CCC(c3ccc(Cl)cc3)C2)ccc1NC(=O)c1sc2ccccc2c1Cl (stereo not drawn) [Example 108] | 5.41
CC(NC(=O)c1ccc(NC(=O)c2ccc(-c3ccc(Cl)cc3)s2)c(C(=O)O)c1)c1ccc(Cl)cc1 (stereo not drawn) [Example 110] | 5.47
O=C(NC1CCCc2ccccc21)c1ccc(NC(=O)c2ccc(-c3ccc(Cl)cc3)s2)c(C(=O)O)c1 (stereo not drawn) [Example 112] | 5.30
O=C(O)c1cc(C(=O)N2CCC(c3ccc(F)cc3)CC2)ccc1NC(=O)c1sc2ccccc2c1Cl [Example 113] | 5.57
O=C(O)c1cc(C(=O)N2CCC(Cc3ccc(F)cc3)CC2)ccc1NC(=O)c1sc2ccccc2c1Cl [Example 114] | 5.52
O=C(O)c1cc(C(=O)N2CCC(c3ccc(Cl)cc3)CC2)ccc1NC(=O)c1sc2ccccc2c1Cl [Example 115] | 5.51
COc1ccc(C2CCN(C(=O)c3ccc(NC(=O)c4sc5ccccc5c4Cl)c(C(=O)O)c3)CC2)cc1 [Example 116] | 5.62
COc1ccc(CC2CCN(C(=O)c3ccc(NC(=O)c4sc5ccccc5c4Cl)c(C(=O)O)c3)CC2)cc1 [Example 117] | 5.54

Results, then the molecule that gave them:

pIC50 | SMILES
5.66 | O=C(O)c1cc(C(=O)N2CCC(Cc3ccc(Cl)cc3)CC2)ccc1NC(=O)c1sc2ccccc2c1Cl [Example 118, 2-(3-Chlorobenzo[b]-thiophene-2-carboxamido)-5-(4-(4-chlorobenzyl)piperidine-1-carbonyl)benzoic acid]
5.39 | O=C(Nc1ccc(Cl)cc1)c1ccc(NC(=O)c2ccc(-c3cccs3)cc2O)c(C(=O)O)c1 [Example 120, 5-(4-Chlorophenyl-carbamoyl)-2-(2-hydroxy-4-(thiophen-2-yl)benzamido)-benzoic acid]
5.31 | Cc1cccc(C)c1C1CCN(C(=O)c2ccc(NC(=O)c3sc4ccccc4c3Cl)c(C(=O)O)c2)CC1 [Example 121]
5.03 | O=C(O)c1cc(C(=O)N2CCC(c3ccc(O)cc3)CC2)ccc1NC(=O)c1sc2ccccc2c1Cl [Example 122]
5.46 | O=C(NCCc1ccccc1)c1ccc(NC(=O)c2ccc(-c3nc4cc(Cl)c(Cl)cc4[nH]3)cc2)c(C(=O)O)c1 [Example 123]
5.41 | O=C(Nc1ccc(C(=O)N2CCCCC2)cc1C(=O)O)c1ccc(-c2nc3cc(Cl)c(Cl)cc3[nH]2)cc1 [Example 124]
5.46 | O=C(Nc1ccc(C(=O)NC2CCCCC2)cc1C(=O)O)c1ccc(-c2nc3cc(Cl)c(Cl)cc3[nH]2)cc1 [Example 125]
5.92 | O=C(NCC1CCCCC1)c1ccc(NC(=O)c2ccc(-c3nc4cc(Cl)c(Cl)cc4[nH]3)cc2)c(C(=O)O)c1 [Example 126]
6.00 | CCCCc1ccc(NC(=O)c2ccc(NC(=O)c3ccc(-c4nc5cc(Cl)c(Cl)cc5[nH]4)cc3)c(C(=O)O)c2)cc1 [Example 129]
5.12 | CC(C)CNC(=O)c1ccc(NC(=O)c2ccc(-c3nc4cc(Cl)c(Cl)cc4[nH]3)cc2)c(C(=O)O)c1 [Example 130]
6.15 | CC(C)CN(CC(C)C)C(=O)c1ccc(NC(=O)c2ccc(-c3nc4cc(Cl)c(Cl)cc4[nH]3)cc2)c(C(=O)O)c1 [Example 131]
5.28 | O=C(NCc1ccccc1)c1ccc(NC(=O)c2ccc(-c3nc4cc(Cl)c(Cl)cc4[nH]3)cc2)c(C(=O)O)c1 [Example 132]
5.72 | CC(NC(=O)c1ccc(NC(=O)c2ccc(-c3nc4cc(Cl)c(Cl)cc4[nH]3)cc2)c(C(=O)O)c1)c1ccc(Cl)cc1 (stereo not drawn) [Example 133]
5.72 | O=C(Nc1ccc(Cl)cc1)c1ccc(NC(=O)c2[nH]c3ccc(Cl)cc3c2-c2ccccc2)c(C(=O)O)c1 [Example 134]
6.05 | Cn1c(-c2ccc(C(=O)Nc3ccc(C(=O)Nc4ccc(Cl)cc4)cc3C(=O)O)cc2)nc2cc(Cl)c(Cl)cc21 [Example 135]
5.62 | CCCCCCCNC(=O)c1ccc(NC(=O)c2ccc(-c3nc4cc(Cl)c(Cl)cc4[nH]3)cc2)c(C(=O)O)c1 [Example 137]
5.18 | O=C(Nc1ccccc1)c1ccc(NC(=O)c2ccc(-c3nc4cc(Cl)c(Cl)cc4[nH]3)cc2)c(C(=O)O)c1 [Example 138]
